Results reported in article PMC9599641, “TNP Analogues Inhibit the Virulence Promoting IP3-4 Kinase Arg1 in the Fungal Pathogen Cryptococcus neoformans” (Biomolecules, 2022).

Experiments:
HsIPMK = HsIPMK (Homo sapiens, UniProt Q8NFU5); assay: Kinase-Glo enzyme inhibition assay, recombinant HsIPMK; also: 6 ng/µL enzyme; assay type: biochemical; design: GST (N, cleaved yes); made in house; host or cells: E. coli BL21 (DE3); plasmid made by GenScript
Protocol: (§1) The 2,6-disubstituted purine compounds are ATP-competitive IPK inhibitors. […] The amount of IP3 and kinase used for each recombinant enzyme was determined following the manufacturer’s instructions, and this concentration was used to assess the inhibitory properties of TNP analogues against each of the recombinant enzymes.
(§2) The analogues were dissolved in DMSO. For the assay, the inhibitors were added to the reaction mixture to achieve a final concentration of 50 µM in 5% DMSO (1:20 dilution). To achieve inhibitor concentrations lower than 50 µM in the assay, the inhibitor stock was first serially diluted two-fold in DMSO and added to the reaction mixture, to achieve concentrations ranging between 0.8 μM and 50 µM in 5% DMSO. Once all analogues and their dilution series had been added, the reaction was started by adding an optimal amount of recombinant IP3-4K enzyme. The reaction was stopped after 10-min incubation at room temperature by adding a 50 µL of Kinase-Glo® reagent. The mixture was incubated at room temperature in the dark for 10–15 min. Luminescence (RLU) was measured using a SpectraMax iD5 and an integration time of 0.5 s. Percent enzyme activity was defined as (RLUnegative − RLUsample)/(RLUnegative − RLUpositive) × 100. ‘Positive’ refers to 100% enzyme activity (no inhibitor used as the positive control), while ‘negative’ refers to 0% enzyme activity (no enzyme used as the negative control).
(§3) Next, we determined the inhibitory properties of TNP. TNP is an ATP-competitive inhibitor [34]. […] IP3 and enzyme concentrations were also optimised following the manufacturer’s instructions. […] This optimal amount of IP3 was then used to test varying concentrations of the kinase ranging from 0 to 20 ng/µL. The amount of kinase that produced luminescence values in the linear range of the kinase titration curve was deemed to be the optimal kinase amount.

[1] = test system: CnArg1 (IP3-4K from C. neoformans); assay: Kinase-Glo enzyme inhibition assay, recombinant CnArg1; assay type: biochemical; conditions: selectivity, ratio higher than 1 = more selective for CnArg1
Protocol: as §1, §2, §3

[2] = molecular target: CnArg1 (IP3-4K from C. neoformans) (Cryptococcus neoformans var. grubii, UniProt J9W3G0); assay: as above; assay type: biochemical; conditions: 10 µM ATP, 50 µM IP3, 2.5 ng/µL enzyme, 10 min, room temperature, 5% DMSO; mean ± SEM
Protocol: as §1, §2, §3

CnArg1 = CnArg1 (Cryptococcus neoformans var. grubii, UniProt J9W3G0); assay: Surface plasmon resonance (SPR) binding to immobilised CnArg1; conditions: 6.25–200 µM, 10 °C, steady-state affinity, mean ± SEM
Protocol: SPR was carried out on a Biacore T200 (Cytiva, Marlborough, MA, USA). A streptavidin surface was prepared by amine coupling streptavidin to a CM5 chip using standard procedures in 20 mM HEPES, 150 mM NaCl pH 7.5 at 37 °C. Briefly, the surface was activated by injection of 1:1 NHS:EDC (N-ethyl-N’-(3-(dimethylamino)propyl)carbodiimide/N-hydroxysuccinimide) followed by a 7-min injection of 100 µg/mL streptavidin in 10 mM sodium acetate (pH 4.5) at a flow rate of 2 µL/min. Unreacted groups on the surface were blocked by injection of 1 M ethanolamine (pH 8.0). Purified recombinant CnArg1 was N-terminally biotinylated and immobilised to a level of ~4000 RU onto the streptavidin surface at 25 °C in 20 mM HEPES, 200 mM NaCl, 5 mM MgCl2 (pH 7.5) at a flow rate of 2 µL/min.
For analysis, compounds were prepared to 50 mM in 100% DMSO and diluted to the desired concentration in SPR running buffer; 20 mM HEPES (pH 7.5), 200 mM NaCl, 5 mM MgCl2, 5% DMSO. Analysis was carried out using multi-cycle kinetics over a compound concentration range of 6.25–200 µM in running buffer at 10 °C, with an association time of 60 s and a dissociation time of 120 s. Data were reference subtracted, and a solvent correction applied. Analysis was carried out using Biacore T200 Evaluation Software and all data fit to a 1:1 Langmuir binding isotherm.

Chain of CnArg1 (J9W3G0 entry or part of it): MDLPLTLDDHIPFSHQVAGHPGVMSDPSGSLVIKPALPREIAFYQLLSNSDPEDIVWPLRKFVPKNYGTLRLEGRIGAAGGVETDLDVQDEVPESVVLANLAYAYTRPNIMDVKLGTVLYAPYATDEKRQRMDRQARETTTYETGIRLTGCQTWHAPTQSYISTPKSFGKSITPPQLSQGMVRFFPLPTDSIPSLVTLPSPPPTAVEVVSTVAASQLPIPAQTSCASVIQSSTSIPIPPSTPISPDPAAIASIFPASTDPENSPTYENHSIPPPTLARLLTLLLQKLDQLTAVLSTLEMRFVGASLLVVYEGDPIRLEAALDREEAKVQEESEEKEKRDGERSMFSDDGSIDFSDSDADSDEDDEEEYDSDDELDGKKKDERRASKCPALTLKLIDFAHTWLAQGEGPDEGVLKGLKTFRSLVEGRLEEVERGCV
Chain of CnArg1 (IP3-4K from C. neoformans) (Cryptococcus neoformans var. grubii, UniProt J9W3G0) (J9W3G0 entry or part of it): as above
Chain of HsIPMK (Q8NFU5 whole entry): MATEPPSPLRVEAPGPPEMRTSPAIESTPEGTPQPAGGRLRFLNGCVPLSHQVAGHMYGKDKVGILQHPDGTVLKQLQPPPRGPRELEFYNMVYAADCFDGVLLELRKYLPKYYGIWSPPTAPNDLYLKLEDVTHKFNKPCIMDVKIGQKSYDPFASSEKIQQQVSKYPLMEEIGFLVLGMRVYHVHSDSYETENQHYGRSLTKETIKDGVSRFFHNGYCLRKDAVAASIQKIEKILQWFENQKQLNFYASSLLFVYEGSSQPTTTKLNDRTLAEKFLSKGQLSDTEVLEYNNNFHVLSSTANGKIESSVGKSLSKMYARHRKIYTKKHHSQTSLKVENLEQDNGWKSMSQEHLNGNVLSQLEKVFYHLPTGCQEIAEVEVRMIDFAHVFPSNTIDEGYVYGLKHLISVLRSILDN

Structure (SMILES): COCCNc1nc(Nc2ccc(O)cc2)nc2[nH]cnc12 [Compound 37]
- IC50 (HsIPMK): 7 ± 1 µM
- HsIPMK/CnArg1 IC50 ratio [1]: 0.4
- IC50 [2]: 17 ± 2 µM
- KD (CnArg1): No binding
